For 19 molecules, Ki and IC50 results are on record in patent US20180265515A1 (Genentech, Inc., priority 2015, published 2018).

The target of test [1] is T1, isolated recombinant JAK2 kinase domain (Homo sapiens, UniProt O60674).
T1 construct: The activity of the isolated recombinant JAK1 and JAK2 kinase domain was measured
The test can be described thus: JAK2 enzyme assay (Caliper LabChip, Ki). The note with it: 25 μM ATP. Type of test: biochemical. In outline: (§1)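 Ki values fitted with Morrison tight-binding equation adjusted for ATP-competitive inhibition, using product-to-total peptide ratio read by Caliper LabChip. Reactions: isolated JAK1 or JAK2 kinase domain with N-terminal 5-carboxyfluorescein JAK3-derived peptide, 22° C for 30 min, quenched by EDTA.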

The target of test [2] is T2, isolated recombinant JAK1 kinase domain (Homo sapiens, UniProt P23458).
T2 construct: The activity of the isolated recombinant JAK1 and JAK2 kinase domain was measured
The test can be described thus: JAK1 enzyme assay (Caliper LabChip, Ki). Particulars: recombinant JAK1 kinase domain, 25 μM ATP. Type of test: biochemical. In outline:
as §1

Test [3] concerns JAK1-dependent STAT6 phosphorylation downstream of IL-13 stimulation in BEAS-2B human bronchial epithelial cells. The test can be described thus: JAK1 pathway assay in BEAS-2B cells (IL-13 stimulated STAT6 phosphorylation, MSD). Type of test: cell-based. The note with it: read-out: P-STAT6 BEAS2B + IL13 IC50. In outline:
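BEAS-2B human bronchial epithelial cells, plated the day before in complete growth medium, were preincubated with compound for 1 hr at 37° C (0.2% DMSO final), then stimulated with IL-13 at its EC90 for 15 min. STAT6 phosphorylation in lysates was read by MSD; EC50 was taken as 50% inhibition versus DMSO control.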

SMILES strings stand for the structures.

T1 sequence (O60674 849-1124 limits assumed): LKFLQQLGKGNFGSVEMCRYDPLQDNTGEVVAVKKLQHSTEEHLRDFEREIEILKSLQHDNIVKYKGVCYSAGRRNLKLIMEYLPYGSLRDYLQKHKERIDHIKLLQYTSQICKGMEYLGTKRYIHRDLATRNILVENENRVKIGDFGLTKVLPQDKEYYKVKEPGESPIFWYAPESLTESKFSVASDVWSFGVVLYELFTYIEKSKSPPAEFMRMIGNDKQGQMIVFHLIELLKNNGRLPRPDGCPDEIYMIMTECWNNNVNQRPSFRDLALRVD
T2 sequence (P23458 875-1153 limits assumed): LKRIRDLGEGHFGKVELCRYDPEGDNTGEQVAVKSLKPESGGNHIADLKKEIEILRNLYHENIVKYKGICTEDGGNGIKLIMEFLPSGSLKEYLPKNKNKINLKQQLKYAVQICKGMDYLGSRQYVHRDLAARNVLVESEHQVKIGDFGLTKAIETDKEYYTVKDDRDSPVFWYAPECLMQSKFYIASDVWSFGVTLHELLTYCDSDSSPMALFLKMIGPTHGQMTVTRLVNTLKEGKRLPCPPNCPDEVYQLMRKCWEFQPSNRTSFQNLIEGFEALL

As a reminder, the Ki is a dissociation constant, usually derived from enzyme kinetics or from competition with a known ligand. For orientation: IC50 means the concentration that gives 50% inhibition. Regarding `CN1CCN(C2CCN(C(=O)Cn3cc(NC(=O)c4cnn5cccnc45)c(-c4cc(SC5COC5)ccc4OC(F)F)n3)CC2)CC1` [Example 190, N-[3-[2-(difluoromethoxy)-5-(oxetan-3-ylsulfanyl)phenyl]-1-[2-[4-(4-methylpiperazin-1-yl)-1-piperidyl]-2-oxo-ethyl]pyrazol-4-yl]pyrazolo[1,5-a]pyrimidine-3-carboxamide], the Ki worked out at 3.8 nM in test [1] and 1.1 nM in test [2]. For the same molecule, in test [3], the IC50 was 170 nM.

Regarding `CC(C)Sc1ccc(OC(F)F)c(-c2nn(CC(=O)N3CCC(N(C)C4COC4)CC3)cc2NC(=O)c2cnn3cccnc23)c1` [Example 110, N-[3-[2-(difluoromethoxy)-5-isopropylsulfanyl-phenyl]-1-[2-[4-[methyl(oxetan-3-yl)amino]-1-piperidyl]-2-oxo-ethyl]pyrazol-4-yl]pyrazolo[1,5-a]pyrimidine-3-carboxamide], the Ki turned out to be 1 nM in test [1] and 0.41 nM in test [2]. In addition, in test [3], the IC50 is 27 nM.

In the case of `CSc1ccc(OC(F)F)c(-c2nn(CC(=O)N3CCC(N4CCOCC4)CC3)cc2NC(=O)c2cnn3cccnc23)c1` [Example 5, N-(3-(2-(difluoromethoxy)-5-(methylthio)phenyl)-1-(2-(4-morpholinopiperidin-1-yl)-2-oxoethyl)-1H-pyrazol-4-yl)pyrazolo[1,5-a]pyrimidine-3-carboxamide], the Ki in test [1] is 0.4 nM; in test [2], 0.29 nM. For the same molecule, the IC50 in test [3] turned out to be 15 nM.

For `CSc1ccc(OC(F)F)c(-c2nn([C@H]3CCCNC3)cc2NC(=O)c2cnn3cccnc23)c1` [Example 9, N-[3-[2-(difluoromethoxy)-5-methylsulfanyl-phenyl]-1-[(3S)-3-piperidyl]pyraxol-4-yl]pyrazolo[1,5-a]pyrimidine-3-carboxamide], the Ki in test [1] is 0.28 nM; in test [2], 0.44 nM. Besides, in test [3], the IC50 was 5.2 nM.

`CC(C)Sc1ccc(OC(F)F)c(-c2nn(Cc3cn(C4CCN(C5COC5)CC4)nn3)cc2NC(=O)c2cnn3cccnc23)c1` [Example 148, N-[3-[2-(difluoromethoxy)-5-isopropylsulfanyl-phenyl]-1-[[1-[1-(oxetan-3-yl)-4-piperidyl]triazol-4-yl]methyl]pyrazol-4-yl]pyrazolo[1,5-a]pyrimidine-3-carboxamide]: the Ki in test [1] is 0.24 nM; in test [2], 0.4 nM. In addition, in test [3], the IC50 turned out to be 55 nM.

As to `CSc1ccc(OC(F)F)c(-c2nn(CC(=O)N3CCC(N(C)CC(=O)N4CCC4)CC3)cc2NC(=O)c2cnn3cccnc23)c1` [Example 22, N-[1-[2-[4-[[2-(azetidin-1-yl)-2-oxo-ethyl]-methyl-amino]-1-piperidyl]-2-oxo-ethyl]-3-[2-(difluoromethoxy)-5-methylsulfanyl-phenyl]pyrazol-4-yl]pyrazolo[1,5-a]pyrimidine-3-carboxamide], the Ki amounted to 0.62 nM in test [1] and 0.32 nM in test [2]. Besides, the IC50 in test [3] is 130 nM.

In the case of `CC(C)Sc1ccc(OC(F)F)c(-c2nn(CC(=O)N3CCC(CN4CCN(CC(=O)N(C)C)CC4)CC3)cc2NC(=O)c2cnn3cccnc23)c1` [Example 114, N-[3-[2-(difluoromethoxy)-5-isopropylsulfanyl-phenyl]-1-[2-[4-[[4-[2-(dimethylamino)-2-oxo-ethyl]piperazin-1-yl]methyl]-1-piperidyl]-2-oxo-ethyl]pyrazol-4-yl]pyrazolo[1,5-a]pyrimidine-3-carboxamide], the Ki was determined as 3.9 nM in test [1] and 1.6 nM in test [2]. Further, the concentration for half-maximal inhibition (IC50) in test [3] is 55 nM.

As to `CSc1ccc(OC(F)F)c(-c2nn(CC(=O)N3CC4CCCN(C)C4C3)cc2NC(=O)c2cnn3cccnc23)c1` (stereo not drawn) [Example 39, N-[3-[2-(difluoromethoxy)-5-methylsulfanyl-phenyl]-1-[2-(1-methyl-3,4,4a,5,7,7a-hexahydro-2H-pyrrolo[3,4-b]pyridin-6-yl)-2-oxo-ethyl]pyrazol-4-yl]pyrazolo[1,5-a]pyrimidine-3-carboxamide], the Ki in test [1] came to 0.33 nM; in test [2], 0.3 nM. Also, the IC50 in test [3] was determined as 19 nM.

Turning to `CC(C)Sc1ccc(OC(F)F)c(-c2nn(CC(=O)N3CCC(N4CCSCC4)CC3)cc2NC(=O)c2cnn3cccnc23)c1` [Example 111, N-[3-[2-(difluoromethoxy)-5-isopropylsulfanyl-phenyl]-1-[2-oxo-2-(4-thiomorpholino-1-piperidyl)ethyl]pyrazol-4-yl]pyrazolo[1,5-a]pyrimidine-3-carboxamide], the inhibition constant (Ki) amounted to 1 nM in test [1] and 0.38 nM in test [2]. For the same molecule, the IC50 in test [3] was determined as 19 nM.

For `CSc1ccc(OC(F)F)c(-c2nn(CC(=O)N3CCC(N4CCn5ccnc5C4)CC3)cc2NC(=O)c2cnn3cccnc23)c1` [Example 73, N-[3-[2-(difluoromethoxy)-5-methylsulfanyl-phenyl]-1-[2-[4-(6,8-dihydro-5H-imidazo[1,2-a]pyrazin-7-yl)-1-piperidyl]-2-oxo-ethyl]pyrazol-4-yl]pyrazolo[1,5-a]pyrimidine-3-carboxamide], the Ki was 0.25 nM in test [1] and 0.23 nM in test [2]. In test [3], the IC50 turned out to be 39 nM.

Consider `CC(C)Sc1ccc(OC(F)F)c(-c2nn(CC(=O)N3CCC(N4CCN(C5COC5)CC4)CC3)cc2NC(=O)c2cnn3cccnc23)c1` [Example 143], for which the results for the Ki in test [1] and in test [2] were 2.5 nM and 0.92 nM, respectively. The IC50 in test [3] was 89 nM.

On to `CSc1ccc(OC(F)F)c(-c2nn(CC(=O)N3CCC(N4CC(C#N)C4)CC3)cc2NC(=O)c2cnn3cccnc23)c1` [Example 59, N-[1-[2-[4-(3-cyanoazetidin-1-yl)-1-piperidyl]-2-oxo-ethyl]-3-[2-(difluoromethoxy)-5-methylsulfanyl-phenyl]pyrazol-4-yl]pyrazolo[1,5-a]pyrimidine-3-carboxamide], for which the Ki was 0.34 nM in test [1] and 0.2 nM in test [2]. In test [3], the IC50 worked out at 15 nM.

Regarding `CC(C)Sc1ccc(OC(F)F)c(-c2nn(CC(=O)N3CCN(CCN4CCOCC4)CC3)cc2NC(=O)c2cnn3cccnc23)c1` [Example 109, N-[3-[2-(difluoromethoxy)-5-isopropylsulfanyl-phenyl]-1-[2-[4-(2-morpholinoethyl)piperazin-1-yl]-2-oxo-ethyl]pyrazol-4-yl]pyrazolo[1,5-a]pyrimidine-3-carboxamide], the inhibitory constant (Ki) in test [1] was 0.78 nM; in test [2], 0.41 nM. For the same molecule, the half-inhibitory concentration (IC50) in test [3] is 33 nM.

On to `CC(C)Sc1ccc(OC(F)F)c(-c2nn(CC(=O)N3CCC(N4CCN(C)CC4)CC3)cc2NC(=O)c2cnn3cccnc23)c1` [Example 118, N-[3-[2-(difluoromethoxy)-5-isopropylsulfanyl-phenyl]-1-[2-[4-(4-methylpiperazin-1-yl)-1-piperidyl]-2-oxo-ethyl]pyrazol-4-yl]pyrazolo[1,5-a]pyrimidine-3-carboxamide], for which the Ki in test [1] was 1.8 nM; in test [2], 0.6 nM. Further, the IC50 in test [3] was found to be 40 nM.

With `CSc1ccc(OC(F)F)c(-c2nn(CC(=O)N3CCC(N4CCCC(C#N)C4)CC3)cc2NC(=O)c2cnn3cccnc23)c1` (stereo not drawn) [Example 31, N-[1-[2-[4-(3-cyano-1-piperidyl)-1-piperidyl]-2-oxo-ethyl]-3-[2-(difluoromethoxy)-5-methylsulfanyl-phenyl]pyrazol-4-yl]pyrazolo[1,5-a]pyrimidine-3-carboxamide], the results for the Ki in test [1] and in test [2] were 0.25 nM and 0.19 nM, respectively. For the same molecule, the IC50 in test [3] was 8.3 nM.

Consider `CSc1ccc(OC(F)F)c(-c2nn(CC(=O)N3CCC(N4CCSCC4)CC3)cc2NC(=O)c2cnn3cccnc23)c1` [Example 27, N-[3-[2-(difluoromethoxy)-5-methylsulfanyl-phenyl]-1-[2-oxo-2-(4-thiomorpholino-1-piperidyl)ethyl]pyrazol-4-yl]pyrazolo[1,5-a]pyrimidine-3-carboxamide], for which the inhibition constant (Ki) in test [1] was determined as 0.32 nM; in test [2], 0.23 nM. Also, in test [3], the IC50 was determined as 5.1 nM.

Consider `CC(C)Sc1ccc(OC(F)F)c(-c2nn(C)cc2NC(=O)c2cnn3cccnc23)c1` [Example 144, N-[3-[2-(difluoromethoxy)-5-(propan-2-ylsulfanyl)phenyl]-1-methyl-1H-pyrazol-4-yl]pyrazolo[1,5-a]pyrimidine-3-carboxamide], for which the Ki amounted to 0.14 nM in test [1] and 0.25 nM in test [2]. In addition, the IC50 in test [3] was 5.6 nM.

Turning to `CSc1ccc(OC(F)F)c(-c2nn(CC(=O)N3CCC(N4CCNC(=O)C4)CC3)cc2NC(=O)c2cnn3cccnc23)c1` [Example 15, N-[3-[2-(difluoromethoxy)-5-methylsulfanyl-phenyl]-1-[2-oxo-2-[4-(3-oxopiperazin-1-yl)-1-piperidyl]ethyl]pyrazol-4-yl]pyrazolo[1,5-a]pyrimidine-3-carboxamide], the Ki in test [1] amounted to 0.38 nM; in test [2], 0.28 nM. Besides, the IC50 in test [3] is 310 nM.

Consider `CSc1ccc(OC(F)F)c(-c2nn(CC(=O)N3CCN(CC4CCN(CC(=O)N(C)C)CC4)CC3)cc2NC(=O)c2cnn3cccnc23)c1` [Example 33, N-[3-[2-(difluoromethoxy)-5-methylsulfanyl-phenyl]-1-[2-[4-[[1-[2-(dimethylamino)-2-oxo-ethyl]-4-piperidyl]methyl]piperazin-1-yl]-2-oxo-ethyl]pyrazol-4-yl]pyrazolo[1,5-a]pyrimidine-3-carboxamide], for which the values for the Ki in test [1] and in test [2] were 0.73 nM and 0.38 nM, respectively. Moreover, the concentration for half-maximal inhibition (IC50) in test [3] was 35 nM.
